Assay results published in US20210070747A1, “2(1H)-QUINOLINONE DERIVATIVE” (priority 2017, published 2021).
In brackets after ≈: the same amount, converted by molar mass. Like-named read-outs stand apart in the source and are kept apart here.

Key:
E. coli DNA gyrase = molecular target: T1, E. coli DNA gyrase (Escherichia coli, UniProt P0AES6); assay: Test for evaluating the activity of inhibiting E. coli DNA gyrase enzyme (Method 2, supercoiling, recombinant gyrA/gyrB complex); type: biochemical
T1 construct: made in house; host or cells: E. coli BL21 (DE3)
Experimental: The enzymatic activity of E. coli DNA gyrase was measured by a method comprising reacting DNA gyrase and its substrate, relaxed pBR322 (Inspiralis), in the presence of ATP and detecting the post-reaction supercoiled pBR322/relaxed pBR322 ratio with H19.
Specifically, to 1 ng/μL of relaxed pBR322, E. coli DNA gyrase enzyme (the gyrA or gyrB gene was incorporated into the pET15b plasmid and after expressing them in E. coli BL21 (DE3), purification was performed using a Ni-NTA column to form a complex at room temperature) was added at a final concentration of 0.135 nmol/mL and the mixture was incubated for 60 minutes at room temperature. This reaction was carried out in 20 mmol/L tris-HCl buffered solution (pH 8.0) comprising 0.5 mmol/L ATP, 0.005% bridge 35, 35 mmol/L ammonium acetate, 8 mmol/L magnesium chloride, 4.6% glycerol, and 1 mmol/L dithiothreitol. To the reaction mixture, H19 was added to bring the reaction to an end; thereafter, the supercoiled pBR322/relaxed pBR322 ratio was detected at excitation wavelength/emission wavelength=485 nm/535 nm. An inhibition curve was obtained by allowing the analyte compound to be present at varying concentrations during the reaction described above.

E. Coli ATCC 25922 = assay: Test for evaluating antibacterial activity (E. coli), broth microdilution MIC; type: cell-based; conditions: Escherichia coli, ATCC25922; 35° C., 18 hours, cation-adjusted Mueller-Hinton medium
Experimental: Minimum inhibitory concentration (MIC) was measured using the broth microdilution method described below in accordance with a modification of the standard method specified by CLSI (Clinical & Laboratory Standards Institute).
(§1) Bacterial cells under test were cultured overnight on a heart infusion agar medium, scraped off and suspended at a concentration equivalent to McFarland 0.5 turbidity; the suspension thus obtained was diluted 10 folds to give a liquid inoculum. The inoculum (0.005 mL) was inoculated on a cation-adjusted Mueller-Hinton medium containing the analyte compound and cultured at 35° C. for 18 hours. A minimum drug concentration at which no bacterial growth was macroscopically visible was designated MIC.

[1] = system: N. gonorrhoeae ATCC 49226; assay: Test for evaluating antibacterial activity (N. gonorrhoeae), broth microdilution MIC; type: cell-based; conditions: Neisseria gonorrhoeae, ATCC49226; 35° C., 24 hours, gonococcal broth
Experimental: Minimum inhibitory concentration (MIC) was measured using the broth microdilution method described below in accordance with a modification of the method of Geers et al. (Antimicrob. Agents. Chemother. (1989), 33, 233-234).
After sterilization, BD. Difco supplement C was added to give a final concentration of 1%, whereby a gonococcal broth was prepared.
as §1, with “chocolate II” for “heart infusion”, “5” for “10”, “gonococcal broth” for “cation-adjusted Mueller-Hinton medium”, “24” for “18”

[2] = Method 2, read-out: E. Coli Gyrase supercoiling IC50

**Q.** With `CNc1cccc2cc(C(=O)Nc3cccc(C(=O)O)c3)c(=O)[nH]c12` [Example 1, 3-[[8-(Methylamino)-2-oxo-1,2-dihydroquinoline-3-carbonyl]amino]benzoic Acid] as the compound, how does the IC50 (E. coli DNA gyrase; [2]) read?
**A.** Its IC50 is 52.3 nM.

**Q.** What about the MIC (E. Coli ATCC 25922) of the same compound?
**A.** Its MIC is > 64 µg/mL.

**Q.** What about the MIC [1] of the same compound?
**A.** Its MIC is > 4 µg/mL.

**Q.** With `CNc1cccc2cc(C(=O)Nc3cccc(CC(=O)O)c3)c(=O)[nH]c12` [Example 4, (3-{[8-(methylamino)-2-oxo-1,2-dihydroquinoline-3-carboyl]amino}phenyl)acetic acid] as the compound, how does the IC50 (E. coli DNA gyrase; [2]) read?
**A.** Its IC50 is 164 nM.

**Q.** What about the MIC (E. Coli ATCC 25922) of the same compound?
**A.** The MIC was > 64 µg/mL.

**Q.** And the MIC [1]?
**A.** The MIC was > 4 µg/mL.

**Q.** What does the source list for `CNc1cccc2cc(C(=O)NCc3ccc(C(=O)O)cc3)c(=O)[nH]c12` [Example 6, 4-({[8-(methylamino)-2-oxo-1,2-dihydroquinoline-3-carbonyl]amino}methyl)benzoic acid]?
**A.** MIC (E. Coli ATCC 25922): > 64 µg/mL; MIC [1]: 4 µg/mL (≈ 11.4 µM)

**Q.** Which results are given for `CNc1cccc2cc(C(=O)NCCc3nc(O)cc(O)n3)c(=O)[nH]c12` [Example 32, N-[2-(4,6-dihydroxy-pyrimidine-2-yl)ethyl]-8-(methylamino)-2-oxo-1,2-dihydroquinoline-3-carboxamide]?
**A.** IC50 (E. coli DNA gyrase; [2]): 25.3 nM; MIC (E. Coli ATCC 25922): > 64 µg/mL; MIC [1]: > 4 µg/mL

**Q.** What does the source list for `CNc1cccc2cc(C(=O)Nc3cnc(CO)nc3)c(=O)[nH]c12` [Example 37, N-[2-(hydroxymethyl)pyrimidine-5-yl]-8-(methylamino)-2-oxo-1,2-dihydroquinoline-3-carboxamide]?
**A.** IC50 (E. coli DNA gyrase; [2]): 9.97 nM; MIC (E. Coli ATCC 25922): > 4 µg/mL; MIC [1]: 1 µg/mL (≈ 3.07 µM)

**Q.** Which results are given for `CNc1cc(F)cc2cc(C(=O)NCCc3ccc(O)c(OC)c3)c(=O)[nH]c12` [Example 81, 6-fluoro-N-[2-(4-hydroxy-3-methoxyphenyl)ethyl]-8-(methylamino)-2-oxo-1,2-dihydroquinoline-3-carboxamide]?
**A.** IC50 (E. coli DNA gyrase; [2]): 110 nM; MIC [1]: > 1 µg/mL

**Q.** How did the IC50 (E. coli DNA gyrase) turn out when `CNc1cc(F)cc2cc(C(=O)Nc3ccc(C(=O)O)cc3CN(C)C3CCN(C)CC3)c(=O)[nH]c12.Cl` [Example 83, 4-{[6-fluoro-8-(methylamino)-2-oxo-1,2-dihydroquinoline-3-carbonyl]amino)-3-{[methyl(1-methylpiperidine-4-yl)amino]methyl} benzoic acid-hydrochloride] was run?
**A.** Its IC50 is 1.09 nM.

**Q.** What about the MIC (E. Coli ATCC 25922) of the same compound?
**A.** Its MIC is > 16 µg/mL.

**Q.** And the MIC [1]?
**A.** Its MIC is > 4 µg/mL.

**Q.** Which results are given for `CNc1cc(F)cc2cc(C(=O)Nc3cnccc3CO)c(=O)[nH]c12` [Example 91, 6-Fluoro-N-[4-(hydroxymethyl)pyridin-3-yl]-8-(methylamino)-2-oxo-1,2-dihydroquinoline-3-carboxamide]?
**A.** IC50 (E. coli DNA gyrase; [2]): 18.6 nM; MIC (E. Coli ATCC 25922): > 16 µg/mL; MIC [1]: 1 µg/mL (≈ 2.92 µM)

**Q.** Which results are given for `CCc1cc(C(=O)O)ccc1NC(=O)c1cc2cc(F)cc(NC)c2[nH]c1=O` [Example 93, 3-ethyl-4-{[6-fluoro-8-(methylamino)-2-oxo-1,2-dihydraquinoline-3-carbonyl]amino} benzoic acid]?
**A.** IC50 (E. coli DNA gyrase; [2]): 31.8 nM; MIC (E. Coli ATCC 25922): > 2 µg/mL; MIC [1]: 0.25 µg/mL (≈ 0.652 µM)

**Q.** For `CNc1cc(F)cc2cc(C(=O)Nc3cnccc3CN(C)C3CCCCC3)c(=O)[nH]c12` [Example 95, N-(4-{[cyclohexyl(methyl)amino]methyl}pyridine-3-yl)-6-fluoro-8-(methylamino)-2-oxo-1,2-dihydroquinoline-3-carboxamide], which IC50 (E. coli DNA gyrase) is on record?
**A.** The IC50 was 2.16 nM.

**Q.** And the MIC (E. Coli ATCC 25922)?
**A.** Its MIC is > 16 µg/mL.

**Q.** And the MIC [1]?
**A.** Its MIC is 1 µg/mL (≈ 2.29 µM).

**Q.** What does the source list for `CNc1cc(F)cc2cc(C(=O)Nc3c(C)cc(C(=O)O)cc3CN(C)C3CCCCC3)c(=O)[nH]c12` [Example 99, 3-{[cyclohexyl (methyl)amino]methyl}-4-{[6-fluoro-8-(methylamino)-2-oxo-1,2-dihydroquinoline-3-carbonyl]amino}-5-methylbenzoic acid]?
**A.** IC50 (E. coli DNA gyrase; [2]): 0.7 nM; MIC (E. Coli ATCC 25922): 64 µg/mL (≈ 129 µM); MIC [1]: 0.25 µg/mL (≈ 0.505 µM)

**Q.** Which IC50 (E. coli DNA gyrase; [2]) does the source give for `CNc1cc(F)cc2nc(C(=O)Nc3ccc(C(=O)O)cc3CN(C)C3CCCCC3)c(=O)[nH]c12` [Example 100, 3-[[Cyclohexyl(methyl)amino]methyl]-4-[[7-fluoro-5-(methylamino)-3-oxo-3,4-dihydroquinoxaline-2-carbonyl]amino]benzoic Acid] here?
**A.** Its IC50 is 33.7 nM.

**Q.** And the MIC (E. Coli ATCC 25922)?
**A.** The MIC was > 64 µg/mL.

**Q.** And the MIC [1]?
**A.** The MIC was > 1 µg/mL.

**Q.** For `CNc1cc(F)cc2cc(C(=O)Nc3ccccc3CN(CC(=O)O)C3CCCCC3)c(=O)[nH]c12` [Example 103, N-cyclohexyl-N-[(2-{[6-fluoro-8-(methylamino)-2-oxo-1,2-dihydroquinoline-3-carbonyl]amino}phenyl)methyl]glycine], which IC50 (E. coli DNA gyrase) is on record?
**A.** The IC50 was 12.1 nM.

**Q.** What about the MIC (E. Coli ATCC 25922) of the same compound?
**A.** The MIC was > 64 µg/mL.

**Q.** And the MIC [1]?
**A.** The MIC was 4 µg/mL (≈ 8.32 µM).

**Q.** With `CCCCCCCCN(CCCCCCCC)Cc1cc(C(=O)O)ccc1NC(=O)c1cc2cc(F)cc(NC)c2[nH]c1=O` [Example 106, 3-[(dioctylamino)methyl]-4-{[6-fluoro-8-(methylamino)-2-oxo-1,2-dihydroquinoline-3-carbonyl]amino} benzoic acid] as the compound, how does the IC50 (E. coli DNA gyrase; [2]) read?
**A.** The IC50 was 6.98 nM.

**Q.** What about the MIC (E. Coli ATCC 25922) of the same compound?
**A.** The MIC was > 8 µg/mL.

**Q.** And the MIC [1]?
**A.** Its MIC is 0.5 µg/mL (≈ 0.821 µM).

**Q.** Which results are given for `CNc1cncc2cc(C(=O)Nc3ccc(C(=O)O)cc3CN(C)C3CCCCC3)c(=O)[nH]c12` [Example 108, 3-[[Cyclohexyl(methyl)amino]methyl]-4-[[8-(methylamino)-2-oxo-1,2-dihydro-1,6-naphthyridine-3-carbonyl]amino]benzoic Acid]?
**A.** IC50 (E. coli DNA gyrase; [2]): 6.05 nM; MIC (E. Coli ATCC 25922): > 32 µg/mL; MIC [1]: > 1 µg/mL

**Q.** How did the IC50 (E. coli DNA gyrase) turn out when `CNc1cc(F)cc2cc(C(=O)Nc3ccc(C(=O)O)cc3CN(CCN)C3CCCCC3)c(=O)[nH]c12.O=C(O)C(F)(F)F` [Example 110, 3-{[(2-aminoethyl)(cyclohexyl)amino]methyl}-4-{[6-fluoro-8-(methylamino)-2-oxo-1,2-dihydroquinoline-3-carbonyl]amino}benzoic acid-trifluoroacetate] was run?
**A.** The IC50 was 3.68 nM.

**Q.** What about the MIC (E. Coli ATCC 25922) of the same compound?
**A.** Its MIC is > 64 µg/mL.

**Q.** What about the MIC [1] of the same compound?
**A.** Its MIC is > 1 µg/mL.

**Q.** With `CNc1cc(F)cc2cc(C(=O)N[C@H]3CC[C@H](C(=O)O)CC3)c(=O)[nH]c12` [Example 116, trans-4-{[6-fluoro-8-(methylamino)-2-oxo-1,2-dihydroquinoline-3-carbonyl]amino} cyclohexane-1-carboxylic acid] as the compound, how does the IC50 (E. coli DNA gyrase) read?
**A.** The IC50 was 137 nM.

**Q.** And the MIC (E. Coli ATCC 25922)?
**A.** Its MIC is > 64 µg/mL.

**Q.** And the MIC [1]?
**A.** Its MIC is > 1 µg/mL.

**Q.** What does the source list for `CNc1cc(F)cc2c(OC)c(C(=O)Nc3ccc(C(=O)O)cc3)c(=O)[nH]c12` [Example 118, 4-[[6-Fluoro-4-methoxy-8-(methylamino)-2-oxo-1,2-dihydroquinoline-3-carbonyl]amino]benzoic Acid]?
**A.** inhibition at 0.1 µM (E. coli DNA gyrase; Method 2, at 100 nM): 45%; MIC (E. Coli ATCC 25922): > 64 µg/mL; MIC [1]: 1 µg/mL (≈ 2.6 µM)

**Q.** For `CNc1cc(F)cc2cc(C(=O)Nc3ccc(C(N)=O)cc3CN(C)C3CCCCC3)c(=O)[nH]c12` [Example 121, N-(4-carbamoyl-2-{[cyclohexyl(methyl)amino]methyl}phenyl)-6-fluoro-8-(methylamino)-2-oxo-1,2-dihydroquinoline-3-carboxamide], which IC50 (E. coli DNA gyrase; [2]) is on record?
**A.** The IC50 was 2.48 nM.

**Q.** What about the MIC (E. Coli ATCC 25922) of the same compound?
**A.** The MIC was > 32 µg/mL.

**Q.** What about the MIC [1] of the same compound?
**A.** Its MIC is 0.25 µg/mL (≈ 0.521 µM).

**Q.** What does the source list for `CNc1cc(F)cc2cc(C(=O)Nc3ccc(CO)cc3CN(C)C3CCCCC3)c(=O)[nH]c12` [Example 122, N-[2-{[cyclohexyl(methyl)amino]methyl}-4-(hydroxymethyl)phenyl]-6-fluoro-8-(methylamino)-2-oxo-1,2-dihydroquinoline-3-carboxamide]?
**A.** IC50 (E. coli DNA gyrase; [2]): 1.92 nM; MIC (E. Coli ATCC 25922): 16 µg/mL (≈ 34.3 µM); MIC [1]: 0.5 µg/mL (≈ 1.07 µM)

**Q.** `CNc1cc(F)cc2c(O)c(C(=O)Nc3ccccc3)c(=O)[nH]c12` [Example 129, 6-fluoro-4-hydroxy-8-(methylamino)-2-oxo-N-phenyl-1,2-dihydroquinoline-3-carboxamide] was tested. Which IC50 (E. coli DNA gyrase; [2]) did it give?
**A.** The IC50 was 387 nM.

**Q.** And the MIC (E. Coli ATCC 25922)?
**A.** The MIC was > 16 µg/mL.

**Q.** What about the MIC [1] of the same compound?
**A.** Its MIC is 1 µg/mL (≈ 3.06 µM).
